Laboratory results published in patent US11365199B2, “Pyrazole compounds as modulators of FSHR and uses thereof” (Merck Patent GmbH, priority 2013, dated 2022).
Counter-ions that a name gives are not always drawn.

Target: T1, FSHR (Homo sapiens, UniProt P23945)
T1 construct: expressed in transfected cells; host or cells: CHO (Cho-FSHR-LUC-1-1-43)
T1 sequence (P23945 18-695): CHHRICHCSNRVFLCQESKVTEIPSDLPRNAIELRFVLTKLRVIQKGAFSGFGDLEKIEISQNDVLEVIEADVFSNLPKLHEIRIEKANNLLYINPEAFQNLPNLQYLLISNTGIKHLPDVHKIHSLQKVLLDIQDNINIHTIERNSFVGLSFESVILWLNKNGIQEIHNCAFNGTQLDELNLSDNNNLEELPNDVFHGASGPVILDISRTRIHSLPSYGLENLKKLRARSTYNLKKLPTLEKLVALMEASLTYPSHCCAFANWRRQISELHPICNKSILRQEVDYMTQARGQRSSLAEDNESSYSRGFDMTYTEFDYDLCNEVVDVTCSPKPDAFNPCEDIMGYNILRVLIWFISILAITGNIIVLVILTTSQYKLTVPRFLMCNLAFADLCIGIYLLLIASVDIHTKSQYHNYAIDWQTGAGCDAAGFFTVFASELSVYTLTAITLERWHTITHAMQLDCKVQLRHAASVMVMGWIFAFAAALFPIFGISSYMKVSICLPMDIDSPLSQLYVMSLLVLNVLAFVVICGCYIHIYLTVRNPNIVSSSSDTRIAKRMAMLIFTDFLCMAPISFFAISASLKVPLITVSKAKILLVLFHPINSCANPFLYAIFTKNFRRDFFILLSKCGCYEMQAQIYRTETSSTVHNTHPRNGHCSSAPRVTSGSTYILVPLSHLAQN
Assay: EC50 of cyclic AMP production in CHO FSHR cells + EC20 FSH (Assay A)
Format: cell-based
Conditions: CHO FSHR cells + EC20 FSH, cAMP HTRF; read-out: Assay A: EC50 of cyclic AMP production
In short: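 Cho-FSHR-LUC cells were exposed to compound dilution series with EC20 FSH ([…]) and 200 μM IBMX for 1 h at 37° C. cAMP was read by HTRF (665/620 nm ratio). Effects are percent of the maximal FSH standard response.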

Row | Structure (SMILES) | EC50 [nM]
1 | COc1cc2c(cc1-c1sc(C)nc1C)-c1c(c(C(=O)N(C)C(C)(C)C)nn1-c1ccsc1)CO2 [Compound 53, 8-(2,4-Dimethyl-thiazol-5-yl)-7-methoxy-1-thiophen-3-yl-1,4-dihydro-chromeno[4,3-c]pyrazole-3-carboxylic acid tert-butyl-methyl-amide] | < 100
2 | COc1cc2c(cc1C=C(C)C)-c1c(c(C(=O)NCCCc3nnn[nH]3)nn1-c1ccsc1)CO2 [Compound 11, 7-Methoxy-8-(2-methyl-propenyl)-1-thiophen-3-yl-1,4-dihydro-chromeno[4,3-c]pyrazole-3-carboxylic acid [3-(1H-tetrazol-5-yl)-propyl]-amide; trifluoro-acetic acid salt] | 1000 to 5000
3 | COc1cc2c(cc1-c1cnn(C)c1)-c1c(c(C(=O)N(C)C(C)(C)C)nn1-c1ccsc1)CO2 [Compound 66, 7-Methoxy-8-(1-methyl-1H-pyrazol-4-yl)-1-thiophen-3-yl-1,4-dihydro-chromeno[4,3-c]pyrazole-3-carboxylic acid tert-butyl-methyl-amide] | < 100
4 | CNC(=O)c1nn(-c2ccsc2)c2c1COc1cc(OC)c(-c3cn[nH]c3)cc1-2 [Compound 22, 7-Methoxy-8-(1H-pyrazol-4-yl)-1-thiophen-3-yl-1,4-dihydro-chromeno[4,3-c]pyrazole-3-carboxylic Acid Methylamide] | 1000 to 5000
5 | COc1cc2c(cc1C=C(C)C)-c1c(c(C(=O)N3CCCC(NC(=O)OC(C)(C)C)CC3)nn1-c1ccsc1)CO2 (stereo not shown) [Compound 35, {1-[7-Methoxy-8-(2-methyl-propenyl)-1-thiophen-3-yl-1,4-dihydro-chromeno[4,3-c]pyrazole-3-carbonyl]-azepan-4-yl}-carbamic acid tert-butyl ester] | 1000 to 5000
6 | COc1cc2c(cc1-c1cn[nH]c1)-c1c(c(C(=O)NCCN3CCOC3=O)nn1-c1ccsc1)CO2 [Compound 62, 7-Methoxy-8-(1H-pyrazol-4-yl)-1-thiophen-3-yl-1,4-dihydro-chromeno[4,3-c]pyrazole-3-carboxylic acid [2-(2-oxo-oxazolidin-3-yl)-ethyl]-amide] | 100 to 1000
7 | COc1cc2c(cc1-c1cc[nH]n1)-c1c(c(C(=O)N(C)C(C)(C)C)nn1-c1ccsc1)CO2 [Compound 65, 7-Methoxy-8-(1H-pyrazol-3-yl)-1-thiophen-3-yl-1,4-dihydro-chromeno[4,3-c]pyrazole-3-carboxylic acid tert-butyl-methyl-amide] | < 100
8 | COc1cc2c(cc1C=C(C)C)-c1c(c(C(=O)N3CCC[C@H](C(=O)N4CCC4)CC3)nn1-c1ccsc1)CO2 [Compound 46, [(S)-4-(Azetidine-1-carbonyl)-azepan-1-yl]-[7-methoxy-8-(2-methyl-propenyl)-1-thiophen-3-yl-1,4-dihydro-chromeno[4,3-c]pyrazol-3-yl]-methanone] | 1000 to 5000
9 | [2H]C([2H])([2H])N(CCN1CCOC1=O)C(=O)c1nn(-c2ccsc2)c2c1COc1cc(OC)c(-c3cnn(C([2H])([2H])[2H])c3)cc1-2 [Compound 78] | < 100
10 | COc1cc2c(cc1C=C(C)C)-c1c(c(C(=O)N(C)C(C)(C)CO)nn1-c1ccsc1)CO2 [Compound 40, 7-Methoxy-8-(2-methyl-propenyl)-1-thiophen-3-yl-1,4-dihydro-chromeno[4,3-c]pyrazole-3-carboxylic acid (2-hydroxy-1,1-dimethyl-ethyl)-methyl-amide] | < 100
11 | [2H]C([2H])([2H])N(CCN(C(=O)c1nn(-c2ccsc2)c2c1COc1cc(OC)c(C=C(C)C)cc1-2)C([2H])([2H])[2H])C(C)=O [Compound 61] | < 100
12 | [2H]C([2H])([2H])OCC1(C)CCCN1C(=O)c1nn(-c2ccsc2)c2c1COc1cc(OC)c(C=C(C)C)cc1-2 (stereo not shown) [Compound 51] | < 100

More lines, now with the values ahead:

Row | EC50 [nM] | Structure (SMILES)
13 | > 5000 | COc1ccc2c(c1)OCc1c(C(=O)N3CCOCC3(C)C)nn(-c3ccsc3)c1-2 [Compound 128, (3,3-Dimethyl-morpholin-4-yl)-(7-methoxy-1-thiophen-3-yl-1,4-dihydro-chromeno[4,3-c]pyrazol-3-yl)-methanone]
14 | 1000 to 5000 | COc1cc2c(cc1-c1ccn(C)c1)-c1c(c(C(=O)NCC3(O)COC3)nn1-c1ccsc1)CO2 [Compound 164, 7-Methoxy-8-(1-methyl-1H-pyrrol-3-yl)-1-thiophen-3-yl-1,4-dihydro-chromeno[4,3-c]pyrazole-3-carboxylic acid (3-hydroxy-oxetan-3-ylmethyl)-amide]
15 | > 5000 | COc1cc2c(cc1-c1c[nH]nc1C)-c1c(c(C(=O)NC3CC(O)C3)nn1-c1ccsc1)CO2 (stereo not shown) [Compound 138, 7-Methoxy-8-(3-methyl-1H-pyrazol-4-yl)-1-thiophen-3-yl-1,4-dihydro-chromeno[4,3-c]pyrazole-3-carboxylic acid (3-hydroxy-cyclobutyl)-amide]
16 | < 100 | COc1cc2c(cc1-c1cnc(C)n1C)-c1c(c(C(=O)N(C)C(C)(C)C)nn1-c1ccsc1)CO2 [Compound 92, 8-(2,3-Dimethyl-3H-imidazol-4-yl)-7-methoxy-1-thiophen-3-yl-1,4-dihydro-chromeno[4,3-c]pyrazole-3-carboxylic acid tert-butyl-methyl-amide]
17 | < 100 | COc1cc2c(cc1-c1ccn(C)n1)-c1c(c(C(=O)O[C@H]3CC[C@H](N)C3)nn1-c1ccsc1)CO2 [Compound 180, 7-Methoxy-8-(1-methyl-1H-pyrazol-3-yl)-1-thiophen-3-yl-1,4-dihydro-chromeno[4,3-c]pyrazole-3-carboxylic Acid (1S,3S)-3-amino-cyclopentyl Ester]
18 | 100 to 1000 | [2H]C([2H])([2H])N(C(=O)c1nn(-c2ccsc2)c2c1COc1cc(OC)c(-c3cn(C([2H])([2H])[2H])nc3C)cc1-2)C1CCOC1 (stereo not shown) [Compound 143]
19 | 100 to 1000 | COc1cc2c(cc1-c1ccn(C)n1)-c1c(c(C(=O)NC3(C)COC3)nn1-c1ccsc1)CO2 [Compound 100, 7-Methoxy-8-(1-methyl-1H-pyrazol-3-yl)-1-thiophen-3-yl-1,4-dihydro-chromeno[4,3-c]pyrazole-3-carboxylic acid (3-methyl-oxetan-3-yl)-amide]
20 | 1000 to 5000 | COc1cc2c(cc1CC(C)C)-c1c(c(C(=O)NC3(CO)COC3)nn1-c1ccsc1)CO2 [Compound 141, 8-Isobutyl-7-methoxy-1-thiophen-3-yl-1,4-dihydro-chromeno[4,3-c]pyrazole-3-carboxylic acid (3-hydroxymethyl-oxetan-3-yl)-amide]
21 | < 100 | [2H]C([2H])([2H])N(C(=O)c1nn(-c2ccsc2)c2c1COc1cc(OC)c(-c3ccnn3C)cc1-2)C1(C)COC1 [Compound 118]
22 | 1000 to 5000 | COc1cc2c(cc1-c1ccn(C)n1)-c1c(c(C(=O)NC3CC(O)C3)nn1-c1ccsc1)CO2 (stereo not shown) [Compound 137, 7-Methoxy-8-(1-methyl-1H-pyrazol-3-yl)-1-thiophen-3-yl-1,4-dihydro-chromeno[4,3-c]pyrazole-3-carboxylic acid (3-hydroxy-cyclobutyl)-amide]
23 | < 100 | COc1cc2c(cc1-c1cnn(C)c1C)-c1c(c(C(=O)N3CCOCC3(C)C)nn1-c1ccsc1)CO2 [Compound 124, (3,3-Dimethyl-morpholin-4-yl)-[8-(1,5-dimethyl-1H-pyrazol-4-yl)-7-methoxy-1-thiophen-3-yl-1,4-dihydro-chromeno[4,3-c]pyrazol-3-yl]-methanone]
24 | < 100 | COc1cc2c(cc1-c1ccn(C)n1)-c1c(c(C(=O)N3CCOCC3C(F)(F)F)nn1-c1ccsc1)CO2 (stereo not shown) [Compound 144, [7-Methoxy-8-(1-methyl-1H-pyrazol-3-yl)-1-thiophen-3-yl-1,4-dihydro-chromeno[4,3-c]pyrazol-3-yl]-(3-trifluoromethyl-morpholin-4-yl)-methanone]
25 | < 100 | COc1cc2c(cc1-c1cnn(CCC#N)c1)-c1c(c(C(=O)N3CCOCC3(C)C)nn1-c1ccsc1)CO2 [Compound 190, 3-{4-[3-(3,3-Dimethyl-morpholine-4-carbonyl)-7-methoxy-1-thiophen-3-yl-1,4-dihydro-chromeno[4,3-c]pyrazol-8-yl]-pyrazol-1-yl}-propionitrile]
26 | > 5000 | [2H]C([2H])([2H])N(CCCN(C(=O)c1nn(-c2ccsc2)c2c1COc1cc(OC)c(CC(C)C)cc1-2)C([2H])([2H])[2H])C(C)=O [Compound 84]
27 | < 100 | COc1cc2c(cc1-c1cscn1)-c1c(c(C(=O)N(C)C(C)(C)C)nn1-c1ccsc1)CO2 [Compound 81, 7-Methoxy-8-thiazol-4-yl-1-thiophen-3-yl-1,4-dihydro-chromeno[4,3-c]pyrazole-3-carboxylic acid tert-butyl-methyl-amide]
28 | 1000 to 5000 | COc1cc2c(cc1-c1ccn(C)n1)-c1c(c(C(=O)N3CCN(C(=O)OC(C)(C)C)CC34CC4)nn1-c1ccsc1)CO2 [Compound 158, 4-[7-Methoxy-8-(1-methyl-1H-pyrazol-3-yl)-1-thiophen-3-yl-1,4-dihydro-chromeno[4,3-c]pyrazole-3-carbonyl]-4,7-diaza-spiro[2.5]octane-7-carboxylic acid tert-butyl ester]
